The text below walks through data of patent US12419884B2, “Compositions and methods for treating iron overload” (BRIGHAM YOUNG UNIVERSITY, priority 2018, dated 2025).

Assay [1] concerns hepcidin secretion from HepG2 cells. Kind of assay: hepcidin secretion from IL-6 inflamed HepG2 cells, ELISA. The format is cell-based. Conditions: IL-6 (10 ng/mL), inhibitors at 10 ng/mL, FIG. 8. How it is done:
HepG2 cells were cultured with controls not treated with additional treatments. The remaining cells were all treated to induce inflammation IL-6 (10 ng/mL). Inhibitors were added at 10 ng/mL to block furin and prevent the cleavage of prohepcidin to hepcidin. Hepcidin secreted into the growth media was measured by ELISA.
In general terms: In an ELISA, binding on a coated surface is turned into a signal by an enzyme label.

Assay [2] shares this test system. Kind of assay: hepcidin secretion from IL-6 and BMP-9 inflamed HepG2 cells, Mass Spectrometry. The format is cell-based. Conditions: IL-6 and BMP-9 (10 ng/mL each), inhibitors at 10 micromolar, FIG. 9.
Method: HepG2 cells were cultured with controls not treated with additional treatments. The remaining cells were all treated to induce inflammation IL-6 and BMP-9 (both cytokines were dosed at 10 ng/mL). Inhibitors were added at 10 micromolar to block furin and prevent the cleavage of prohepcidin to hepcidin. Hepcidin secreted into the growth media was measured by Mass Spectrometry.
The target in assay [3] is furin (Homo sapiens, UniProt P09958). Kind of assay: furin fluorescence assay / enzyme assays with purified furin. Particulars: in vitro fluorescence assay; 55, 110 and 220 micromolar doses; FIG. 7.
Sequence of furin (P09958 108-794, species assumed): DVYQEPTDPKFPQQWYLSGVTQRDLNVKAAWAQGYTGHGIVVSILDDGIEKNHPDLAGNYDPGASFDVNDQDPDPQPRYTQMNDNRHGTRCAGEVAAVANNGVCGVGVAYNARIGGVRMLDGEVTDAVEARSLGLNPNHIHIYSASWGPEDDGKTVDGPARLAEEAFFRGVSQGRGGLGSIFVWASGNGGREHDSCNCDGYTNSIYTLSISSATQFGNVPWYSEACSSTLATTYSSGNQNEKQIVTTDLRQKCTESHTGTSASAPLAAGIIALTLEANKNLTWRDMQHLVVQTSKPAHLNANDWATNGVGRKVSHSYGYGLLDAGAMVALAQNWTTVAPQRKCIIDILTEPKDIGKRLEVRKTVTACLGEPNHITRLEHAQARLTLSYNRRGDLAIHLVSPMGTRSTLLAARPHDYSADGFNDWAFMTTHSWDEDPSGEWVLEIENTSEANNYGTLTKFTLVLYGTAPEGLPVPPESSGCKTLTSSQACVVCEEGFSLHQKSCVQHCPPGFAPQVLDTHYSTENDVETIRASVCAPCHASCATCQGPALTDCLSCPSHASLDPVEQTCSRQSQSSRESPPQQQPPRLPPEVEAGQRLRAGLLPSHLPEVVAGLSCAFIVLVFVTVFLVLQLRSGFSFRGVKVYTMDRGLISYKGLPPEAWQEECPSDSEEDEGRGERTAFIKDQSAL

As to `CC(C)CN(C[C@@H](OP(=O)(O)O)[C@H](Cc1ccccc1)NC(=O)O[C@H]1CCOC1)S(=O)(=O)c1ccc(N)cc1` [fosamprenavir], the “inhibition of hepcidin secretion” value in assay [1] is reported as “showed inhibition of hepcidin secretion”.

Consider `CC(C)(C)NC(=O)[C@@H]1CN(Cc2cccnc2)CCN1C[C@@H](O)C[C@@H](Cc1ccccc1)C(=O)N[C@H]1c2ccccc2C[C@H]1O` [indinavir, (2S)-1-[(2S,4R)-4-benzyl-2-hydroxy-4-{[(1S,2R)-2-hydroxy-2,3-dihydro-1Hinden-1-yl]carbamoyl}butyl]-N-tert-butyl-4-(pyridin-3-ylmethyl)piperazine-2-carboxamide], for which the “inhibition of hepcidin secretion” value in assay [2] is recorded as “more potent response”.

`Cc1c(O)cccc1C(=O)N[C@@H](CSc1ccccc1)[C@H](O)CN1C[C@H]2CCCC[C@H]2C[C@H]1C(=O)NC(C)(C)C` [Nelfinavir, (3S,4aS,8aS)—N-tert-butyl-2-[(2R,3R)-2-hydroxy-3-[(3-hydroxy-2-methylphenyl)formamido]-4-(phenylsulfanyl)butyl]-decahydroisoquinoline-3-carboxamide]: in assay [3], the furin inhibition result is listed as “most potent furin inhibition”.

`CC(C)CN(C[C@@H](O)[C@H](Cc1ccccc1)NC(=O)O[C@H]1CO[C@H]2OCC[C@H]21)S(=O)(=O)c1ccc(N)cc1` [Darunavir, [(1R,5S,6R)-2,8-dioxabicyclo[3.3.0]oct-6-yl] N-[(2S,3R)-4-[(4-aminophenyl)sulfonyl-(2-methylpropyl)amino]-3-hydroxy-1-phenyl-butan-2-yl]carbamate]: the furin inhibition result in assay [3] is recorded as “most potent furin inhibition”. Regarding `COC(=O)N[C@H](C(=O)N[C@@H](Cc1ccccc1)[C@@H](O)CN(Cc1ccc(-c2ccccn2)cc1)NC(=O)[C@@H](NC(=O)OC)C(C)(C)C)C(C)(C)C` [Atazanvir, methyl N-[(1S)-1-{[(2S,3S)-3-hydroxy-4-[(2S)-2-[(methoxycarbonyl)amino]-3,3-dimethyl-N′-{[4-(pyridin-2-yl)phenyl]methyl}butanehydrazido]-1-phenylbutan-2-yl]carbamoyl}-2,2-dimethylpropyl]carbamate], the “inhibition of hepcidin secretion” value in assay [1] is on record as “showed inhibition of hepcidin secretion”. Take `CC(C)c1nc(CN(C)C(=O)N[C@H](C(=O)N[C@@H](Cc2ccccc2)C[C@H](O)[C@H](Cc2ccccc2)NC(=O)OCc2cncs2)C(C)C)cs1` [Ritonavir]: the “inhibition of hepcidin secretion” value in assay [2] is given as “small inhibitory effect”. Besides, the furin inhibition entry in assay [3] was “most potent furin inhibition”. For `CC(C)(C)NC(=O)[C@@H]1CC2CCCCC2CN1C[C@@H](O)[C@H](Cc1ccccc1)NC(=O)[C@H](CC(N)=O)NC(=O)c1ccc2ccccc2n1` (stereo partly drawn) [Saquinavir, (2S)—N-[(2S,3R)-4-[(3S)-3-(tert-butylcarbamoyl)-decahydroisoquinolin-2-yl]-3-hydroxy-1-phenylbutan-2-yl]-2-(quinolin-2-yl-formamido)butanediamide], in assay [3], the furin inhibition entry was “very weak dose dependent inhibition of furin”. In the case of `Cc1cccc(C)c1OCC(=O)N[C@@H](Cc1ccccc1)[C@@H](O)C[C@H](Cc1ccccc1)NC(=O)[C@H](C(C)C)N1CCCNC1=O` [Lopinavir, (2S)—N-[(2S,4S,5S)-5-[2-(2,6-dimethylphenoxy)acetamido]-4-hydroxy-1,6-diphenylhexan-2-yl]-3-methyl-2-(2-oxo-1,3-diazinan-1-yl)butanamide], in assay [1], the “inhibition of hepcidin secretion” value is given as “showed inhibition of hepcidin secretion”.
